Data reported in US8846066B2, “Methods and related compositions for reduction of fat and skin tightening” (The Regents of the University of California, priority 2004, dated 2014).
Several values for one entry are separate records, joined by “and”; a condition that tells them apart may be missing. Equal entries are not always repeated.

Legend:
porcine fat tissue = assay: MTS assay in fresh porcine fat specimens; type: cell-based; details: PBF or 5% solutions, 4 hours
Experimental: To measure cell viability after detergent treatment, HaCaT human keratinocyte cells were cultured in DMEM (Dulbecco's modified Eagle's medium) supplemented with 10% fetal calf serum, penicillin, and streptomycin. […] Cell viability was determined by an absorbance spectrophotometer (at 490 nm) after 4 hour incubation with the assay at 37° C. To determine cell viability in fresh tissue, fat specimens were incubated for 4 hours in 24 well plates with stock reagents and the MTS assay. Tissue specimens were then visualized for color change and the amount of MTS in their supernatants was measured by absorbance (at 490 nm). All studies were performed in triplicate. Absorbance at 490 nm (OD 490) is proportional to the number of living cells in the culture.
Porcine tissue was obtained immediately after sacrifice, shaved, and placed on ice for a maximum of four hours before use. […] Calcein retention was determined by tissue fluorescence using purple (411 nm) light and visually observing the emitted green (500 nm) light using an emission filters.
Fresh porcine skin was used to determine if the effects of these detergent substances on cultured cells were similar in tissue. […] The difference in fat cell viability between the solutions was quantified by measuring the absorbance (at 490) of the supernatants collected from the treated fat specimens (FIG. 3b). […]

[1] = tested on: porcine skin (epidermis, dermis, subcutaneous tissue, muscle); assay: Histology of full thickness porcine skin after injection; details: 0.5 mL stock reagent injected, one hour at 37° C., H&E
Experimental: Histology was performed by injecting stock reagent solutions (0.5 mL) into full thickness porcine skin at various levels (epidermis, dermis, and subcutaneous tissue) with 1.0 mL syringes and 30-gauge, 0.5 inch needles. Needle depth was visualized along the margin of the porcine tissue with the intent of saturating the target tissue. One hour after incubation with PBS at 37° C., multiple 5.0 mm biopsy specimens were obtained from the injected sites, each condition performed in triplicate. Tissue was fixed in formaldehyde, paraffin-embedded, and stained with hematoxylin-eosin. Specimens were evaluated by a board-certified dermatopathologist who was blinded to the treatment protocol.

lipomas = assay: Injection of DC solutions into lipomas of patients (Example 4); type: in vivo, human
Experimental: Patients having lipomas, benign, isolated collections of adipose tissue, were injected with sodium deoxycholate (DC) solutions without phosphatidylcholine directly into the lipoma. […] A lipoma from one patient, injected with 1% DC, was excised after treatment and pathological and histological analysis performed. Within the excised lipoma, necrosis is visible grossly (FIG. 6a) with a well demarcated area of hemorrhage and necrosis on the lateral edge extending into the middle of the lipoma fat which contrasts with the normal lipoma fat which is lighter in color.

fat deposits = assay: Injection of deoxycholate into facial fat deposits of an HIV lipodystrophy patient; type: in vivo, human; details: 1% deoxycholate, 1 month follow up, both sides
Experimental: An HIV lipodystrophy patient with symmetrical fat deposits in their face just vental of their master muscle (sort of in their cheeks, like acorns in the mouth of a chipmunk) was injected with 1% deoxycholate. At 1 month follow up, there was a 50% apparent reduction in deposit volume on both sides.

adipocytes = assay: Adipocyte survival on addition of PC to 4.75% DC; type: cell-based; details: for Average / Adipocytes surviving by adding PC to 4.75% DC: 4.75% DC; for Adipocytes surviving by adding PC to 4.75% DC: single wells
Experimental: FIG. 9 illustrates survival of adipocytes when phosphatidylcholine is added to 4.75% sodium deoxycholate solution. On y-axis, 1 represents 100% survival. All % concentrations are w/v %. Survival of the cells in the absence of DC and PC is on an average 0.113.

A375M = assay: Killing by DC after pre-incubation with human lipoma fat, A375M; type: cell-based
Experimental: (§1) The experiment was performed on a series of immortalized melanocyte cell lines. Resected human lipomas were ground up, and DC-containing media was mixed with the human fat and agitated for 24 hours. The material was centrifuged to pellet insoluble contents. The supernatants were then added on top of cultured melanocytes. Control was the identical DC-containing media not exposed to the fat chunks. Also, fat alone (no media) was added as a control.

CHL = assay: Killing by DC after pre-incubation with human lipoma fat, CHL; type: cell-based
Experimental: as §1

[2] = DC 0.1% media not exposed to fat
[3] = single wells, DC 0.1% media not exposed to fat
[4] = single wells, supernatant of DC 0.1% media agitated 24 hours with human lipoma fat
[5] = supernatant of DC 0.1% media agitated 24 hours with human lipoma fat

C[C@H](CCC(=O)[O-])[C@H]1CC[C@H]2[C@@H]3CC[C@@H]4C[C@H](O)CC[C@]4(C)[C@H]3C[C@H](O)[C@]12C.[Na+] [DC, sodium deoxycholate]
fat cell viability (MTS purple dye, absorbance at 490) (porcine fat tissue): comparable loss of purple dye | histologic changes in epidermis, dermis, adnexal structures [1]: no apparent affect | histologic changes in fat [1]: Marked blurring and dissolution of adipocyte cell membranes | Size(cm) Post-treatment (lipomas; Lipoma 5, pre-treatment 2.00 × 1.75, 2 treatments (1% DC)): 1.25 cm | Size(cm) Post-treatment (lipomas; Lipoma 6, pre-treatment 2.80, 1 treatment (5% DC)): 0.50 cm | Size(cm) Post-treatment (lipomas; Lipoma 7, pre-treatment 1.00, 1 treatment (1% DC)): Imperceptible | size of injected lipomas (lipomas; after at least one treatment, varied concentrations of deoxycholate): reduced in size | pathology and histology of excised lipoma (lipomas; one patient, 1% DC, removed two days after injection): well defined area of hemorrhage and necrotic fat | apparent reduction in deposit volume (fat deposits): 50% | Average (adipocytes; PC 0 (w/v %)): 0 | Average (adipocytes; PC 0.01 (w/v %)): 0 | Average (adipocytes; PC 0.1 (w/v %)): 0 | Average (adipocytes; PC 1 (w/v %)): 0 | Average (adipocytes; PC 5 (w/v %)): 0.009 | adipolysis of cultured adipocytes (adipocytes; 4.75% sodium deoxycholate, in vitro): 100% | Adipocytes surviving by adding PC to 4.75% DC (adipocytes; PC 0 (w/v %)): 0 | Adipocytes surviving by adding PC to 4.75% DC (adipocytes; PC 0.01 (w/v %)): 0 | Adipocytes surviving by adding PC to 4.75% DC (adipocytes; PC 0.1 (w/v %)): 0 | Adipocytes surviving by adding PC to 4.75% DC (adipocytes; PC 1 (w/v %)): 0 | Percentage, DC 0.1% (A375M; Control = 1.000, DC 0.1% media not exposed to fat): 0.106 | Percentage, DC 0.1% + fat (A375M; Control = 1.000, DC 0.1% media pre-incubated with human lipoma fat): 0.662 | Average, DC 0.1% (A375M; [2]): 0.064 | A375M (readings), DC 0.1% (A375M; [3]): 0.066 and 0.063 | Actual, DC 0.1% (A375M; [3]): 0.066 and 0.063 | A375M (readings), DC 0.1% + fat (A375M; [4]): 0.456 and 0.382 and 0.365 | Actual, DC 0.1% + fat (A375M; [4]): 0.456 and 0.382 and 0.365 | Average, DC 0.1% + fat (A375M; [5]): 0.401 | Percentage, DC 0.1% (CHL; Control = 1, DC 0.1% media not exposed to fat): 0.098 | Percentage, DC 0.1% + fat (CHL; Control = 1, DC 0.1% media pre-incubated with human lipoma fat): 0.610 | Average, DC 0.1% (CHL; [2]): 0.065 | Actual, DC 0.1% (CHL; [3]): 0.064 and 0.066 | CHL (readings), DC 0.1% (CHL; [3]): 0.064 and 0.066 | Actual, DC 0.1% + fat (CHL; [4]): 0.402 and 0.426 and 0.378 | CHL (readings), DC 0.1% + fat (CHL; [4]): 0.402 and 0.426 and 0.378 | Average, DC 0.1% + fat (CHL; [5]): 0.402
